ChEMBL document CHEMBL4414676, “Quinazoline-Containing Indole Alkaloids from the Marine-Derived Fungus Aspergillus sp. HNMF114” (J Nat Prod, 2019)
Calls of active or inactive are those of the source. The rule behind the calls is not given here.

Key:
[1] = test system: SGC-7901; assay: Antiproliferative activity against human SGC7901 cells after 24 to 72 hrs by MTT assay; assay type: functional, cell-based
[2] = test system: HeLa; assay: Antiproliferative activity against human HeLa cells after 24 to 72 hrs by MTT assay; assay type: functional, cell-based
[3] = test system: A549; assay: Antiproliferative activity against human A549 cells after 24 to 72 hrs by MTT assay; assay type: functional, cell-based
[4] = test system: Staphylococcus aureus; assay: Antibacterial activity against Staphylococcus aureus after 24 hrs by two fold dilution assay; assay type: functional, organism-based
[5] = test system: Escherichia coli; assay: Antibacterial activity against Escherichia coli after 24 hrs by two fold dilution assay; assay type: functional, organism-based
[6] = test system: Bacillus subtilis; assay: Antibacterial activity against Bacillus subtilis after 24 hrs by two fold dilution assay; assay type: functional, organism-based
[7] = test system: Streptococcus agalactiae; assay: Antibacterial activity against Streptococcus agalactiae after 24 hrs by two fold dilution assay; assay type: functional, organism-based
[8] = test system: K562; assay: Antiproliferative activity against human K562 cells after 24 to 72 hrs by MTT assay; assay type: functional, cell-based
[9] = Inhibition of quorum sensing in C6-HSL-induced Chromobacterium violaceum CV026 assessed as […] by measuring minimum inhibitory dose per well after 18 hrs by well diffusion method

MIC [9] | Structure (SMILES) | Activity [1] | Activity [2] | Activity [3] | Activity [4] | Activity [5] | Activity [6] | Activity [7] | Activity [8]
 | CC1(C)C(=O)N2c3ccccc3[C@@]3(C[C@H]4n5c(nc6ccccc6c5=O)C(=O)C(C)(C)[C@@]4(O)O3)[C@@H]2N1O | inactive | inactive | inactive | inactive | inactive | inactive | inactive | inactive
 | CC1(C)C(=O)N2c3ccccc3[C@@]3(C[C@H](n4cnc5ccccc5c4=O)C(=O)O3)[C@@H]2N1O | inactive | inactive | inactive | inactive | inactive | inactive | inactive | inactive
1 µg | O=C1C=C(Br)/C(=C/Br)O1 |  |  |  |  |  |  |  | 
 | CC(C)[C@@]1(O)NC(=O)[C@@H](C[C@]2(O)c3ccccc3N3C(=O)C(C)(C)N(O)[C@H]32)n2c1nc1ccccc1c2=O | inactive | inactive | inactive | inactive | inactive | inactive | inactive | inactive
32 µg | CC(=O)OC(c1nc2ccccc2c(=O)n1[C@H]1C[C@@]2(OC1=O)C(=O)Nc1ccccc12)C(C)C (some centres not stated) | inactive | inactive | inactive | inactive | inactive | inactive | inactive | inactive
16 µg | CC(C)=C1NC(=O)[C@@H](C[C@@]2(O)C(=O)Nc3ccccc32)n2c1nc1ccccc1c2=O | inactive | inactive | inactive | inactive | inactive | inactive | inactive | inactive
 | O=C1N[C@@H]2c3nc4ccccc4c(=O)n3[C@@H]1C[C@@]21C(=O)Nc2ccccc21 | inactive | inactive | inactive | inactive | inactive | inactive | inactive | inactive
 | CC(C)[C@H](O)c1nc2ccccc2c(=O)n1[C@H]1C[C@]2(OC1=O)c1ccccc1N1C(=O)C(C)(C)N(O)[C@H]12 | inactive | inactive | inactive | inactive | inactive | inactive | inactive | inactive
32 µg | CC(=O)OC(c1nc2ccccc2c(=O)n1[C@@H]1C[C@]2(OC1=O)C(=O)Nc1ccccc12)C(C)C (some centres not stated) | inactive | inactive | inactive | inactive | inactive | inactive | inactive | inactive
 | CCC(=O)O[C@H](c1nc2ccccc2c(=O)n1[C@@H]1C[C@]2(OC1=O)c1ccccc1N1C(=O)C(C)(C)N(O)[C@H]12)C(C)C | inactive | inactive | inactive | inactive | inactive | inactive | inactive | inactive
 | O=C1N[C@H]2c3nc4ccccc4c(=O)n3[C@@H]1C[C@@]21c2ccccc2N2C(=O)[C@@H]3CCCN3[C@H]21 | inactive | inactive | inactive | inactive | inactive | inactive | inactive | inactive
 | CC(=O)O[C@H](c1nc2ccccc2c(=O)n1[C@@H]1C[C@]2(OC1=O)c1ccccc1N1C(=O)C(C)(C)N(O)[C@H]12)C(C)C | inactive | inactive | inactive | inactive | inactive | inactive | inactive | inactive
 | CC(C)[C@@H](O)c1nc2ccccc2c(=O)n1[C@H]1C[C@]2(OC1=O)c1ccccc1N1C(=O)C(C)(C)N(O)[C@H]12 | inactive | inactive | inactive | inactive | inactive | inactive | inactive | inactive
 | CC(C)[C@H](O)c1nc2ccccc2c(=O)n1[C@H]1C[C@]2(OC1=O)c1ccccc1N1C(=O)C(C)(C)N(S(C)(=O)=O)[C@H]12 | inactive | inactive | inactive | inactive | inactive | inactive | inactive | inactive
 | CC(=O)O[C@H](c1nc2ccccc2c(=O)n1[C@@H]1C[C@]2(OC1=O)c1ccccc1N1C(=O)C(C)(C)N[C@H]12)C(C)C | inactive | inactive | inactive | inactive | inactive | inactive | inactive | inactive
 | CC(C)[C@@H]1NC(=O)[C@@H](C[C@]2(O)c3ccccc3N3C(=O)C(C)(C)N[C@H]32)n2c1nc1ccccc1c2=O | inactive | inactive | inactive | inactive | inactive | inactive | inactive | inactive
 | CC(=O)O[C@@H](c1nc2ccccc2c(=O)n1[C@H]1C[C@]2(OC1=O)c1ccccc1N1C(=O)C(C)(C)N[C@H]12)C(C)C | inactive | inactive | inactive | inactive | inactive | inactive | inactive | inactive
